In patent publication US11629171B2, “Beta-hairpin peptidomimetics” (POLYPHOR AG, priority 2017, dated 2023):
Values after ≈ are worked out from the molar mass of the structure shown. Where a SMILES comes first, the peptide text is derived from it. Bridges are numbered along the chain shown (N, C = ends). Roman numbers before positions name the chains, in order. [ ]: non-standard residue; d: D form. Thr(ol) = C[C@@H](O)[C@H](N)CO; Tle = CC(C)(C)[C@H](N)C(=O)O; Hiv = CC(C)[C@H](O)C(=O)O; dDab = NCC[C@@H](N)C(=O)O; hSer = N[C@@H](CCO)C(=O)O; Orn = NCCC[C@H](N)C(=O)O; Dab = NCC[C@H](N)C(=O)O; Dap = NC[C@H](N)C(=O)O

What was measured:
Format in all cases: cell-based
[1] = tested on: Acinetobacter baumannii 872842; details: 872842
Outline: (§1)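 Standard CLSI microdilution testing: bacterial suspensions standardized against 0.5 McFarland to about 10^6 CFU/mL in MH-II broth meet serially halved peptide concentrations in broth containing 0.002% polysorbate 80; incubation lasts 18-20 h at 35° C before the MIC is scored.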

[2] = tested on: Acinetobacter baumannii DSM 30008; details: DSM 30008
Outline: as §1

[3] = tested on: Enterobacter cloacae 848840; details: 848840
Outline: as §1

Escherichia coli 926415 = details: 926415
Outline: as §1

[4] = tested on: Escherichia coli ATCC 25922; details: ATCC 25922
Outline: as §1

[5] = tested on: Klebsiella pneumoniae 968733; details: 968733
Outline: as §1

[6] = tested on: Klebsiella pneumoniae SSI #3010; details: SSI #3010
Outline: as §1

[7] = tested on: Pseudomonas aeruginosa ATCC 27853; details: ATCC 27853
Outline: as §1

[8] = tested on: human red blood cells (hRBC); experiment: Hemolysis; details: red cells of human, 1 h, 200
Outline: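 Percent lysis of human red cells was derived from OD540 of the supernatant, referenced to 2% Triton X-100, after a 1 h, 37° C incubation of 20% (v/v) cells with 200 μg/mL peptide.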

Row | MIC [1] [µg/mL] | Acinetobacter baumannii DSM 30008 MIC [2] [µg/mL] | MIC [3] [µg/mL] | MIC (Escherichia coli 926415) [µg/mL] | Escherichia coli ATCC 25922 MIC [4] [µg/mL] | MIC [5] [µg/mL] | Klebsiella pneumoniae SSI #3010 MIC [6] [µg/mL] | Pseudomonas aeruginosa ATCC 27853 MIC [7] [µg/mL] | MIC [2] [µg/mL] | MIC [4] [µg/mL] | MIC [6] [µg/mL] | MIC [7] [µg/mL] | SMILES | Hemolysis at 200 μg/mL [8] [%]
1 | 0.5 (≈ 0.208 µM) | 0.125 | 1 (≈ 0.416 µM) | 1 (≈ 0.416 µM) | 0.0625 | 4 (≈ 1.66 µM) | 0.25 | 0.125 | – | – | – | – | CC(=O)N[C@H](C(=O)N[C@H]1CCCNC(=O)C[C@@H](C(=O)N[C@@H](CO)C(N)=O)NC(=O)[C@H](C(C)C)NC(=O)[C@H](CO)NC(=O)[C@H](Cc2c[nH]c3ccccc23)NC(=O)[C@H](CO)NC(=O)[C@@H](CCN)NC(=O)[C@H](CCC(=O)N[C@@H](CCN)C(=O)N[C@H](C(=O)N[C@@H](CN)C(=O)N[C@H]2CCNC(=O)[C@H]([C@@H](C)O)NC(=O)[C@H](CCN)NC(=O)[C@H](CCN)NC(=O)[C@H](CC(C)C)NC(=O)[C@@H](CC(C)C)NC(=O)[C@H](CCN)NC2=O)[C@@H](C)O)NC(=O)[C@H](CCN)NC(=O)[C@H](Cc2ccc(O)cc2)NC1=O)C(C)C [Ex. 319] (I: Ac-V[Orn]Y[Dab]E[dDab]SWSVDS-NH2 / II: [Dab]T[Dap][Dab][Dab][dL]L[Dab][Dab]T; lactam I:2-I:11, II:4-II:C; amide I:5-II:N) | <1
2 | 0.125 (≈ 0.0513 µM) | – | 0.125 (≈ 0.0513 µM) | 0.25 (≈ 0.103 µM) | – | 0.125 (≈ 0.0513 µM) | – | – | 0.0625 (≈ 0.0257 µM) | 0.125 (≈ 0.0513 µM) | 0.0625 (≈ 0.0257 µM) | 0.125 (≈ 0.0513 µM) | CC(C)C[C@@H]1NC(=O)[C@@H](Cc2ccccc2)NC(=O)[C@H](CCN)NC(=O)[C@@H](NC(=O)[C@H](CCN)NC(=O)[C@@H](NC(=O)[C@H](CCN)NC(=O)CC[C@@H]2NC(=O)[C@H](CCN)NC(=O)[C@H](Cc3ccc(O)cc3)NC(=O)[C@@H](NC(=O)[C@@H](O)C(C)C)CSSC[C@@H](C(=O)N[C@H](CO)[C@@H](C)O)NC(=O)[C@H](C(C)(C)C)NC(=O)[C@H](CO)NC(=O)[C@H](Cc3c[nH]c4ccccc34)NC(=O)[C@H](CCO)NC(=O)[C@@H](CCN)NC2=O)[C@@H](C)O)CCNC(=O)[C@H]([C@@H](C)O)NC(=O)[C@H](CCN)NC(=O)[C@H](CCN)NC1=O [Ex. 61] (I: H-[Hiv]CY[Dab]E[dDab][hSer]WS[Tle]C[Thr(ol)] / II: [Dab]T[Dab][Dab][Dab][dF]L[Dab][Dab]T; disulfide I:2-I:11; amide I:5-II:N; lactam II:4-II:C) | 3
3 | 0.0625 (≈ 0.0256 µM) | – | 0.125 (≈ 0.0513 µM) | 0.0625 (≈ 0.0256 µM) | – | 0.5 (≈ 0.205 µM) | – | – | 0.0625 (≈ 0.0256 µM) | 0.03125 (≈ 0.0128 µM) | 0.0625 (≈ 0.0256 µM) | 0.125 (≈ 0.0513 µM) | CC(=O)N[C@H](C(=O)N[C@H](C(=O)N[C@@H](Cc1ccc(O)cc1)C(=O)N[C@H]1CSSC[C@@H](C(=O)N[C@H](C(=O)N[C@@H](CCN)C(=O)N[C@H](C(N)=O)C(C)C)C(C)(C)C)NC(=O)[C@H](Cc2c[nH]c3ccccc23)NC(=O)[C@H](CO)NC(=O)[C@@H](CCN)NC(=O)[C@H](CCC(=O)N[C@@H](CCN)C(=O)N[C@H](C(=O)N[C@@H](CN)C(=O)N[C@H]2CCNC(=O)[C@H]([C@@H](C)O)NC(=O)[C@H](CCN)NC(=O)[C@H](CCN)NC(=O)[C@H](CC(C)C)NC(=O)[C@@H](CC(C)C)NC(=O)[C@H](CCN)NC2=O)[C@@H](C)O)NC1=O)[C@@H](C)O)C(C)C [Ex. 206] (I: Ac-VTYCE[dDab]SWC[Tle][Dab]V-NH2 / II: [Dab]T[Dap][Dab][Dab][dL]L[Dab][Dab]T; disulfide I:4-I:9; amide I:5-II:N; lactam II:4-II:C) | 1
4 | 0.0625 (≈ 0.0262 µM) | – | 2 (≈ 0.839 µM) | 0.25 (≈ 0.105 µM) | – | 0.25 (≈ 0.105 µM) | – | – | 0.03125 (≈ 0.0131 µM) | 0.0625 (≈ 0.0262 µM) | 0.0625 (≈ 0.0262 µM) | 0.125 (≈ 0.0524 µM) | CC(C)C[C@@H]1NC(=O)[C@@H](CC(C)C)NC(=O)[C@H](CCN)NC(=O)[C@@H](NC(=O)[C@H](CN)NC(=O)[C@@H](NC(=O)[C@H](CCN)NC(=O)CC[C@@H]2NC(=O)[C@@H](CCN)NC(=O)[C@H](CCCN)NC(=O)[C@@H](NC(=O)[C@H](Cc3ccc(O)cc3)NC(=O)[C@@H](NC(=O)[C@@H](O)C(C)C)[C@@H](C)O)CSSC[C@@H](C(=O)N[C@H](C(=O)N[C@@H](C)C(=O)N[C@H](CO)[C@@H](C)O)C(C)(C)C)NC(=O)[C@H](Cc3c[nH]c4ccccc34)NC2=O)[C@@H](C)O)CCNC(=O)[C@H]([C@@H](C)O)NC(=O)[C@H](CCN)NC(=O)[C@H](CCN)NC1=O [Ex. 211] (I: H-[Hiv]TYC[Orn][dDab]EWC[Tle]A[Thr(ol)] / II: [Dab]T[Dap][Dab][Dab][dL]L[Dab][Dab]T; disulfide I:4-I:9; amide I:7-II:N; lactam II:4-II:C) | <1
